Assay results: patent publication US20140303256A1 (UNIVERSITY INDUSTRY COOPERATION GROUP OF KYUNG HEE …, priority 2011, published 2014)

Experiments:
[1] = system: MMP-2; test: MMP-2 expression by RT-PCR in spinal cord tissue after spinal cord injury; type: in vivo; settings: mouse treated with fluoxetine (200 mg/kg i.p. once a day) after spinal cord injury vs saline
Description: (§1) Adult male C57BL/6 mice (20˜30 g) were anaesthetized with chloral hydrate (500 mg/kg) and T8˜T10 were exposed. The exposed T9 was subjected to contusion injury (by dropping a weight at the impact strength of 40 kd) using PSI (Precision Systems and Instrumentation) impactor. After confirming that a certain damage was given within the error range based on the data of injury level, the incision sites were sealed. After disinfecting the incision sites, the mice were raised in cages (2 mice/cage). Urination was induced by massaging the bladder three times a day. […] Louis, Mo.) dissolved in saline was immediately administered into injured mice via intraperitoneal injection (200 mg/kg). Saline was administered for the control. The administration was performed once a day and continued for 2 weeks. […] Spinal nerve was cut, followed by embedding in OCT compound, which was sectioned by using a cryostat. The spinal cord tissue for the extraction of RNA and protein proceeded to perfusion with PBS. Then, the spinal cord tissue was cut 0.8 cm from the injured area, which was stored in liquid nitrogen at −80° C. until use. RNA was extracted by using TRIZOL Reagent (Invitrogen) according to manufacturer's manual. Total reaction mixture (20 μl) containing 1 μg of RNA was prepared, followed by RT-PCR using MMLV reverse transcriptase (Invitrogen). […]

[2] = system: MMP-9; test: MMP-9 expression by RT-PCR in spinal cord tissue after spinal cord injury; type: in vivo; settings: mouse treated with fluoxetine (200 mg/kg i.p. once a day) after spinal cord injury vs saline
Description: as §1

[3] = system: MMP-12; test: MMP-12 expression by RT-PCR in spinal cord tissue after spinal cord injury; type: in vivo; settings: mouse treated with fluoxetine (200 mg/kg i.p. once a day) after spinal cord injury vs saline
Description: as §1

[4] = system: MMP-2; test: MMP-2 activation by gelatin zymography of spinal cord tissue after spinal cord injury; type: in vivo, mouse; settings: spinal cord tissue 1 day (peak time) after spinal cord injury, vs saline
Description: (§2) Adult male C57BL/6 mice (20˜30 g) were anaesthetized with chloral hydrate (500 mg/kg) and T8˜T10 were exposed. The exposed T9 was subjected to contusion injury (by dropping a weight at the impact strength of 40 kd) using PSI (Precision Systems and Instrumentation) impactor. […] Louis, Mo.) dissolved in saline was immediately administered into injured mice via intraperitoneal injection (200 mg/kg). Saline was administered for the control. The administration was performed once a day and continued for 2 weeks. […] Then, the gel was loaded in renaturing buffer (2.5% Triton X-100), followed by incubation at room temperature for 30 minutes. The gel was loaded in developing buffer (50 mM Tris-HCl, pH 8.5, 0.2 M NaCl, 5 mM CaCl2, 0.02% Brii35), which stood at 37° C. for 24 hours. […] At this time, the clear band on the zymogram gel indicated gelatinase activity.

[5] = system: MMP-9; test: MMP-9 activation by gelatin zymography of spinal cord tissue after spinal cord injury; type: in vivo, mouse; settings: spinal cord tissue 1 day (peak time) after spinal cord injury, vs saline
Description: as §2

[6] = system: ZO-1; test: ZO-1 (tight junction protein) amount by western blot after spinal cord injury; type: in vivo, mouse; settings: vs saline
Description: Adult male C57BL/6 mice (20˜30 g) were anaesthetized with chloral hydrate (500 mg/kg) and T8˜T10 were exposed. The exposed T9 was subjected to contusion injury (by dropping a weight at the impact strength of 40 kd) using PSI (Precision Systems and Instrumentation) impactor. After confirming that a certain damage was given within the error range based on the data of injury level, the incision sites were sealed. After disinfecting the incision sites, the mice were raised in cages (2 mice/cage). Urination was induced by massaging the bladder three times a day. […] Louis, Mo.) dissolved in saline was immediately administered into injured mice via intraperitoneal injection (200 mg/kg). Saline was administered for the control. The administration was performed once a day and continued for 2 weeks. […] The protein was transferred onto nitrocellulose membrane, followed by western blot according to the protocol described in each antibody data sheet.

[7] = system: ZO-1; test: ZO-1 immunohistochemical staining of spinal cord sections after spinal cord injury; type: in vivo, mouse; settings: tissue sections after spinal cord injury, vs saline
Description: Adult male C57BL/6 mice (20˜30 g) were anaesthetized with chloral hydrate (500 mg/kg) and T8˜T10 were exposed. The exposed T9 was subjected to contusion injury (by dropping a weight at the impact strength of 40 kd) using PSI (Precision Systems and Instrumentation) impactor. After confirming that a certain damage was given within the error range based on the data of injury level, the incision sites were sealed. After disinfecting the incision sites, the mice were raised in cages (2 mice/cage). Urination was induced by massaging the bladder three times a day. […] Louis, Mo.) dissolved in saline was immediately administered into injured mice via intraperitoneal injection (200 mg/kg). Saline was administered for the control. The administration was performed once a day and continued for 2 weeks. […] Spinal nerve was cut, followed by embedding in OCT compound, which was sectioned by using a cryostat. […] 10 μm tissue sections were reacted under the condition proposed in each primary antibody manual, followed by color development by using secondary antibodies. For immunofluorescence staining, secondary antibodies of Jackson were used. For DAB color development, Vectastatin kit (Vector) was used.

[8] = system: neutrophils; test: Neutrophil infiltration into spinal cord by flow cytometry; type: in vivo, mouse; settings: flow cytometry (high CD45 and Gr-1), 1 and 5 days after spinal cord injury, vs saline
Description: (§3) Adult male C57BL/6 mice (20˜30 g) were anaesthetized with chloral hydrate (500 mg/kg) and T8˜T10 were exposed. The exposed T9 was subjected to contusion injury (by dropping a weight at the impact strength of 40 kd) using PSI (Precision Systems and Instrumentation) impactor. After confirming that a certain damage was given within the error range based on the data of injury level, the incision sites were sealed. After disinfecting the incision sites, the mice were raised in cages (2 mice/cage). Urination was induced by massaging the bladder three times a day. […] Louis, Mo.) dissolved in saline was immediately administered into injured mice via intraperitoneal injection (200 mg/kg). Saline was administered for the control. The administration was performed once a day and continued for 2 weeks. The spinal cord tissue was extracted 1 and 5 days after spinal cord injury, which was added into PBS. The spinal cord tissue in PBS was mechanically disrupted with a dounce homogenizer, followed by centrifugation at 1,100 rpm for 10 minutes. The obtained pellet was resuspended in FBS containing buffer, which was centrifuged at 3,000 rpm for 7 minutes. […] After washing with FBS containing buffer, neutrophils and macrophages infiltrated into spinal cord 1 and 5 days after spinal cord injury were measured by using Becton Dickinson LSR Benchtop Flow Cytometer (BD Biosciences). […]

[9] = system: macrophages; test: Macrophage infiltration into spinal cord by flow cytometry; type: in vivo, mouse; settings: flow cytometry (high CD45 and CD11b), 1 and 5 days after spinal cord injury, vs saline
Description: as §3

[10] = system: CCL-3; test: CCL-3 chemoattractant expression by RT-PCR after spinal cord injury; type: in vivo, mouse; settings: 1~5 days after spinal cord injury
Description: (§4) Adult male C57BL/6 mice (20˜30 g) were anaesthetized with chloral hydrate (500 mg/kg) and T8˜T10 were exposed. The exposed T9 was subjected to contusion injury (by dropping a weight at the impact strength of 40 kd) using PSI (Precision Systems and Instrumentation) impactor. After confirming that a certain damage was given within the error range based on the data of injury level, the incision sites were sealed. After disinfecting the incision sites, the mice were raised in cages (2 mice/cage). Urination was induced by massaging the bladder three times a day. […] Louis, Mo.) dissolved in saline was immediately administered into injured mice via intraperitoneal injection (200 mg/kg). Saline was administered for the control. The administration was performed once a day and continued for 2 weeks. RNA was extracted by using TRIZOL Reagent (Invitrogen) according to manufacturer's manual. Total reaction mixture (20 μl) containing 1 μg of RNA was prepared, followed by RT-PCR using MMLV reverse transcriptase (Invitrogen).

[11] = system: CCL-4; test: CCL-4 chemoattractant expression by RT-PCR after spinal cord injury; type: in vivo, mouse; settings: 1~5 days after spinal cord injury
Description: as §4

[12] = system: spinal cord injury mouse; test: Animal behavioral test (BBB test), recovery of exercise function after spinal cord injury; type: in vivo
Description: Adult male C57BL/6 mice (20˜30 g) were anaesthetized with chloral hydrate (500 mg/kg) and T8˜T10 were exposed. The exposed T9 was subjected to contusion injury (by dropping a weight at the impact strength of 40 kd) using PSI (Precision Systems and Instrumentation) impactor. After confirming that a certain damage was given within the error range based on the data of injury level, the incision sites were sealed. After disinfecting the incision sites, the mice were raised in cages (2 mice/cage). Urination was induced by massaging the bladder three times a day. […] Louis, Mo.) dissolved in saline was immediately administered into injured mice via intraperitoneal injection (200 mg/kg). Saline was administered for the control. The administration was performed once a day and continued for 2 weeks. BBB test is the method to evaluate the recovery of various nerve fascicles controlling exercise function in combination, in which scores are recorded from 0 to 21. […] A normal mouse got 21 scores for that. So, the exercise function is regarded to be improved as the score got higher. […] The mice were let go freely in the box so as for the mice to be adapted to the experimental environment. […] The average of BBB test scores obtained from those five trained experimenters was considered as the final BBB score for the mouse. To eliminate personal prejudice on the test animal, the experimenters were not given any information on the mice. They only observed the mice 4 minutes every time to give scores.

[13] = maximal electroshock convulsion test in mouse; Leander 1992; cited from earlier work
[14] = system: NMDA receptor; settings: previous report; cited from earlier work

| Compound | expression of MMP-2 [1] | expression of MMP-9 [2] | expression of MMP-12 [3] | MMP-2 activity (gelatinase activity) [4] | MMP-9 activity (gelatinase activity) [5] | amount of ZO-1 [6] | ZO-1 (immunohistochemical staining) [7] | number of neutrophils in spinal cord tissues [8] | number of macrophages in spinal cord tissues [9] | expression of CCL-3 [10] | expression of CCL-4 [11] | crossing frequency of forelegs and hind legs during walking ([12]; 672 h) | BBB points, course ([12]; from 1 week after spinal cord injury, compared with saline only) | BBB point ([12]; ip, 200 mg/kg) | anticonvulsant effects of carbamazepine, phenytoin, and ameltolide [13] | neurotoxic effect of Aβ [14] |
| --- | --- | --- | --- | --- | --- | --- | --- | --- | --- | --- | --- | --- | --- | --- | --- | --- |
| CNCCC(Oc1ccc(C(F)(F)F)cc1)c1ccccc1 (stereo not shown) [fluoxetine] | significantly reduced | significantly reduced | significantly reduced | significantly reduced | significantly reduced | not reduced | hardly reduced | significantly reduced | significantly reduced | suppressed | suppressed | approximately 50% | began to increase | 10.2±0.92 | increased |  |
| C[C@]12N[C@H](Cc3ccccc31)c1ccccc12 [MK-801] |  |  |  |  |  |  |  |  |  |  |  |  |  |  |  | inhibited |
